The structures appear in SMILES notation. Activity calls are given as the source filed them. No cut-off for these calls is given here.

Experiment [1] relates to HL-60. Briefly: Growth inhibition of human HL60 cells at greater than 10 uM after 48 hrs by trypan blue assay. In kind it is functional, cell-based.
Experiment [2] relates to HL-60. Kind of experiment: Growth inhibition of human HL60 cells at 2.5 uM after 72 hrs in serum free medium. Type of experiment: functional, cell-based.
Experiment [3] concerns HL-60. Briefly: Enhancement of human HL60 cells growth at less than 10 uM after 48 hrs by trypan blue assay. In kind it is functional, cell-based.
Experiment [4] deals with HL-60. Kind of experiment: Growth inhibition of human HL60 cells at 5 after 72 hrs in serum free medium. Type of experiment: functional, cell-based.
Experiment [5] has as its system HL-60. Briefly: Antiproliferative activity against human HL60 cells after 72 hrs in serum free medium. In kind it is functional.
For experiment [6], the system named is HL-60. Briefly: Enhancement of human HL60 cells growth at 1 uM after 72 hrs in serum free medium. In kind it is functional, cell-based.
For experiment [7], the system named is HL-60. Kind of experiment: Enhancement of human HL60 cells growth at 2.5 uM after 72 hrs in serum free medium. In kind it is functional, cell-based.
Experiment [8] has as its system HL-60. Kind of experiment: Antiapoptotic activity in human HL60 cells after 72 hrs in serum free medium relative to control. In kind it is functional.
The test system of experiment [9] is HL-60. Kind of experiment: Growth inhibition of human HL60 cells after 48 hrs by trypan blue assay. Particulars: HL-60, 48 h. Type of experiment: functional, cell-based.
Experiment [10] relates to HL-60. Kind of experiment: Antiapoptotic activity in human HL60 cells at 2.5 to 5 uM after 72 hrs in serum free medium relative to control. In kind it is functional.
The test system of experiment [11] is HL-60. Kind of experiment: Enhancement of human HL60 cells growth assessed as promotion of G1 to S transition at 2.5 uM after 24 hrs by flow cytometry. In kind it is functional, cell-based. (A flow cytometer gives signals particle by particle.)
In experiment [12] the test system is HL-60. Briefly: Inhibition of daunorubicin-induced apoptosis in human HL60 cells at 2.5 uM after 48 hrs. Type of experiment: functional, cell-based.
For experiment [13], the system named is HL-60. Briefly: Enhancement of human HL60 cells growth at 5 uM after 72 hrs in serum free medium. In kind it is functional, cell-based.

In the case of `O=C(O)c1ccc(-c2cccc(-c3ccc(O)c(C45CC6CC(CC(C6)C4)C5)c3)c2)cc1`, the outcome in experiment [1] was Active.
On the same count and under the same terms, as for `O=C(O)c1ccc(-c2ccc(-c3ccc(O)c(C45CC6CC(CC(C6)C4)C5)c3)cc2)cc1`, the entry is “Active”.
Consider `O=C(O)c1ccc(C2=NOC(c3ccc(O)c(C45CC6CC(CC(C6)C4)C5)c3)C2)cc1` (stereo not drawn), for which the result in [2], in experiment [1], in [3] and in experiment [4] was Active. The “growth inhibition (GI)” value in [5] was 70%.
As for `O=[N+]([O-])c1ccc(-c2cc(-c3ccc(O)c(C45CC6CC(CC(C6)C4)C5)c3)on2)cc1`, the result in [6], in experiment [1], in experiment [3] and in [7] was Active. Also, in [5], the “growth inhibition (GI)” value turned out to be 70%.
Turning to `COc1cc(-c2ccc(-c3ccc(C(=O)O)cc3)cc2)cc(OC)c1OC`, the Activity in experiment [8] stood at 18%.
In the case of `O=C(O)c1ccc(-c2ccccc2-c2ccc(O)c(C34CC5CC(CC(C5)C3)C4)c2)cc1`, the midpoint of inhibition in experiment [9], the IC50, lay at 8 µM.
The same measure, in the same setting: as for `O=C(O)c1ccc(-c2cc(-c3ccc(O)c(C45CC6CC(CC(C6)C4)C5)c3)on2)cc1`, the figure is 3 µM.
In turn, `O=[N+]([O-])c1ccc(-c2cc(-c3ccc(O)c(C45CC6CC(CC(C6)C4)C5)c3)no2)cc1` registered an Activity in experiment [10] of 10%. In addition, the result in experiment [11], in experiment [1], in [12], in experiment [3] and in experiment [13] was Active. In addition, the “growth inhibition (GI)” value in [5] is reported as 70%.
For the compound `COc1cc(-c2cccc(-c3ccc(C(=O)O)cc3)c2)cc(OC)c1OC`, the Activity in experiment [8] came to 17%.

These data come from ChEMBL document CHEMBL1155845, “Novel terphenyls and 3,5-diaryl isoxazole derivatives endowed with growth supporting and antiapoptotic properties” (J Med Chem, 2008).
